{"source": "patent EP2401611B1", "about": "“IMPROVED METHODS FOR IDENTIFICATION” (Cambridge Enterprise Limited, priority 2009, dated 2010)", "key": {"[1]": {"system": "THP-1 cells", "assay": "MCP-1 induced THP-1 cell migration (Transwell) assay", "assay_type": "cell-based, human", "conditions": "for EC50 / Emax: Homo sapiens, THP-1", "procedure": "Leukocyte migration was measured using the 96-well format micro Transwell^RTM assay system from Neuroprobe (Gaithersburg, MD, USA). In principle, this assay consists of two chambers separated by a porous membrane. The chemoattractant is placed in the lower compartment and the cells are placed in the upper compartment. After incubation for a period at 37°C the cells move towards the chemoattractant, and the number of cells in the lower compartment is proportional to the chemoattractant activity (relative to a series of controls).\nThe method was performed essentially as previously described (Reckless & Grainger (1999) Biochem. J. 340:803-11).\nFirst, the cell suspension to be placed in the upper compartment was prepared. The THP-1 cells were pelleted by centrifugation (770 x g; 4 mins) and washed with Geys Balanced Salt Solution with 1mg/ml BSA (GBSS + BSA). This wash was then repeated, and the cells re-pelleted before being resuspended in a small volume of GBSS + BSA for counting, for example using a standard haemocytometer.\nThe volume of GBSS + BSA was then adjusted depending on the number of cells present so that the cells were at final density of 4.45 x 10^6 cells per ml of GBSS + BSA. This ensured that there were 100,000 THP-1 cells in each 25µl of the solution to be placed in the upper chamber of the plate.\nThe suspension of THP-1 cells at 4.45 x 10^6 cells/ml was divided into three pots. To one pot the BSCI was added at an appropriate final concentration, in an appropriate vehicle (for example (S)- 3-(2',2'-dimethylpropanoylamino)-tetrahydropyridin-2-one was added at 1nM from a stock solution in GBSS). To the second pot, the BSCI was added at the same concentration as in the first pot, but additionally the sstr2 antagonist was also added (for example BIM 23454 [Tulipano et al. (2002) 143:1218-24] or BIM 23627 were added at 66nM final concentration from a stock solution in GBSS). To the third pot, GBSS + BSA plus vehicle as appropriate was added so that the volumes in three pots are equal, acting as a control.\nNext, the chemoattractant solution to be placed in the lower compartment was prepared. […]. Note that, as recommended by Frow et al (Med. Res. Rev. 24:276-98) this is the concentration of MCP-1 which induces maximal migration in this system. This solution was divided into three pots, as for the cell suspension. To one pot, the BSCI was added to the same final concentration as was added to the cell suspension, in the second pot the BSCI and the sstr2 antagonist were both added at the same concentration as previously added to the cell suspension, while to the remaining pot GBSS + BSA plus vehicle as appropriate was added so that the volumes in the three pots were equal. Note that the volume of liquid that needs to be added to make the addition of the BSCI and the sstr2 antagonist compounds needs to be taken into account, when establishing the final concentration of MCP-1 in the solution for the lower compartment and the final concentration of cells in the upper compartment.\nOnce the chemoattractant solutions for the lower wells and cell solutions for the upper chambers were prepared, the migration chamber was assembled. 29 µl of the appropriate chemoattractant solution was placed into the lower well of the chamber. Assays were performed with at least triplicate determinations of each condition. Once all the lower chambers were filled, the porous membrane was applied to the chamber in accordance with the manufacturer's instructions. Finally, 25 µl of the appropriate cell solution was applied to each upper chamber. A plastic lid was placed over the entire apparatus to prevent evaporation.\nThe assembled chamber was incubated at 37 °C, 5% CO2, for 2 hours. A suspension of cells in GBSS + BSA was also incubated under identical conditions in a tube: these cells were used to construct a standard curve for determining the number of cells that migrated to the lower chamber under each condition. […]"}, "[2]": {"system": "rat peripheral blood leukocytes", "assay": "Rat chemokine-induced PBMC migration assay", "assay_type": "cell-based", "conditions": "for EC50 / Emax: Rattus norvegicus, Leukocyte, Table 3; for EC50: read-out: Rat chemokine-induced PBMC migration assay ED50; for Emax: read-out: Rat chemokine-induced PBMC migration assay Max effect (%); for \"Classical\" : \"BSCI\" potency ratio Rat: Table 3, rat PBMC migration ED50 versus rat pituicyte GH suppression ED50"}, "[3]": {"system": "Panc-2H4", "assay": "Human Panc-2H4 insulin suppression assay", "assay_type": "cell-based", "conditions": "Homo sapiens", "from_the_text": "Two different assays for \"classical\" sstr2 functions were adopted: (1) cultured foetal rat pituitary cells secreted growth hormone which is inhibited by sstr2 agonists in a dose-dependent fashion and (2) selected glucose-sensitive sub-clones of the human Panc-1 cell line secrete insulin which is inhibited by sstr2 agonists in a dose-dependent fashion.\nGlucose-sensitive sub-clones of the human Panc-1, a cell line derived from a pleiomorphic epithelioid carcinoma of the exocrine pancreas, were obtained essentially as described by Hamil et al. (2008) Biomed. Sci. Instrum. 44:441-6. Briefly, Panc-1 cells were subcultured in 24 well plates, and the medium was supplemented with an additional 5% glucose. […] The resulting sub-lines were then tested for glucose sensitivity by preparing wells of a 96-well plate (5 x 10^4 cells per well) which were then exposed to cultured medium containing a range of glucose concentrations (low glucose DMEM, DMEM, DMEM + 1% glucose, DMEM ± 2.5% glucose and DMEM + 5% glucose). After 24hrs incubation, the conditioned medium was collected and assayed for insulin secretion by ELISA (Linco; cat# EZHI-14K) in accordance with the manufacturer's instructions. […] Further 96 well plates were prepared using Panc-2H4 (5 x 10^4 cells per well) in DMEM. After 24hrs, the medium was switched to DMEM + 5% glucose containing various test agents at various concentrations (triplicate wells per condition). After a further 24hrs, the conditioned medium was harvested and the concentration of insulin was determined by ELISA as described above.\nResults were reported as the mean ± SD, expressed as the fold change from cells in the presence of vehicle only."}, "[4]": {"conditions": "Table 3, read-out: Human chemokine-induced THP-1 migration assay ED50"}, "[5]": {"conditions": "Table 3, read-out: Human chemokine-induced THP-1 migration assay Max effect (%)"}, "[6]": {"conditions": "Table 3, percentage suppression compared to vehicle, read-out: Human Panc-2H4 insulin suppression assay Max effect (%)"}}, "note": "Where two headings read alike, the source gives them in different places."}
{"compound": "CCCCCCCCCCC(C)(C)C(=O)N[C@H]1CCCCNC1=O", "note": "[BN83250, (S)-3-(2',2'-dimethyldodecanoyl)amino-caprolactam]", "values": [{"measurement": "\"Classical\" : \"BSCI\" potency ratio Human", "setting": "[1]", "value": "<0.00009"}, {"measurement": "EC50", "setting": "[1]; [4]", "value": 0.09, "unit": "nM"}, {"measurement": "Emax", "setting": "[1]; [5]", "value": 100, "unit": "%"}, {"measurement": "EC50", "setting": "[1]; Table 5, library screening hits, read-out: Chemokine-induced THP-1 cell migration assay (\"BSCI\" target) ED50", "value": 0.09, "unit": "nM"}, {"measurement": "Emax", "setting": "[1]; Table 5, read-out: Chemokine-induced THP-1 cell migration assay (\"BSCI\" target) Max Effect (%)", "value": 100, "unit": "%"}, {"measurement": "EC50", "setting": "[1]; read-out: ED50 for inhibition of chemokine-induced THP-1 cell migration", "value": "< 1", "unit": "nM"}, {"measurement": "RATIO", "setting": "[1]; Table 5, THP-1 migration ED50 versus insulin suppression ED50", "value": "<0.00009"}, {"measurement": "EC50", "setting": "[2]", "value": 0.28, "unit": "nM"}, {"measurement": "Emax", "setting": "[2]", "value": 100, "unit": "%"}, {"measurement": "\"Classical\" : \"BSCI\" potency ratio Rat", "setting": "[2]", "value": 0.0009}, {"measurement": "Emax", "setting": "[3]; [6]", "value": 28, "unit": "%"}, {"measurement": "EC50", "setting": "[3]; Table 3, read-out: Human Panc-2H4 insulin suppression assay ED50", "value": 1000, "unit": "nM"}, {"measurement": "EC50", "setting": "[3]; Table 5, library screening hits, read-out: Panc-2H4 insulin suppression assay (\"classical\" target) ED50", "value": 1000, "unit": "nM"}, {"measurement": "Emax", "setting": "[3]; Table 5, read-out: Panc-2H4 insulin suppression assay (\"classical\" target) Max Effect (%)", "value": 28, "unit": "%"}]}
{"compound": "CC(C)(C)C(=O)N[C@H]1CCCNC1=O", "note": "[Valerolactam, (S)-3-(2'2'-dimethylpropionoylamino)-tetrahydropyridin-2-one]", "values": [{"measurement": "potency as BSCI relative to BN83253", "setting": "[1]; Fig. 5 compared with Fig. 4", "value": "20-50 fold"}, {"measurement": "EC50", "setting": "[1]; [4]", "value": 0.05, "unit": "nM"}, {"measurement": "Emax", "setting": "[1]; [5]", "value": 100, "unit": "%"}, {"measurement": "\"Classical\" : \"BSCI\" potency ratio Human", "setting": "[1]; Table 3, THP-1 migration ED50 versus Panc-2H4 insulin suppression ED50", "value": "<0.00005"}, {"measurement": "inhibition of MCP-1 induced cell migration (in words)", "setting": "[1]; figure legends and text", "value": "inhibits MCP-1 induced cell migration in a dose-dependent manner"}, {"measurement": "EC50", "setting": "[2]", "value": 0.07, "unit": "nM"}, {"measurement": "Emax", "setting": "[2]", "value": 100, "unit": "%"}, {"measurement": "\"Classical\" : \"BSCI\" potency ratio Rat", "setting": "[2]", "value": 0.0009}, {"measurement": "Emax", "setting": "[3]; [6]", "value": "< 10", "unit": "%"}]}
